Drawing on PubChem BioAssay (NCI), this text covers TGI for eight compounds.

Some test systems named below: NCI-H226 lung; CCRF-CEM leukemia; HCC-2998 colon; A498 renal; U251 CNS; KM12 colon; EKVX NSCLC; A549 NSCLC; SR leukemia; SF-539 CNS; SK-MEL-2 melanoma; SF-295 CNS; NCI-H460 lung; NCI/ADR-RES ovarian; RPMI-8226 leukemia; SN12C renal; SK-OV-3 ovarian.
What all share (test): NCI tumour cell line growth inhibition, 48 h

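Protocol summary: plate cells (96-well), add compound at 5 concentrations, incubate 48 h, interpolate endpoints linearly. TGI denotes the concentration required for complete inhibition of growth.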

On to `O=C(O)c1nc2ccccc2nc1Nc1ccc(F)cc1`, for which the TGI with NCI-H226 lung was greater than 100 µM; in the experiment with CCRF-CEM leukemia, 79.9 µM; with HCC-2998 colon, greater than 100 µM; with A498 renal, greater than 100 µM; in the experiment with U251 CNS, greater than 100 µM; in the experiment on KM12 colon, greater than 100 µM. The TGI is greater than 100 µM in the experiment on EKVX NSCLC; greater than 100 µM in the experiment on A549 NSCLC; 91.1 µM in the experiment on SR leukemia; 60 µM in the experiment with SF-539 CNS; 76.5 µM with SK-MEL-2 melanoma; 58.5 µM in the experiment with SF-295 CNS. In addition, the TGI in the experiment with NCI-H460 lung, in the experiment on NCI/ADR-RES ovarian and in the experiment with RPMI-8226 leukemia was greater than 100 µM in each case.
Turning to `OCc1ccc2c(c1)CC1(C2)Cc2cc3c(cc2C1)CCC3`, the TGI in the experiment on NCI-H226 lung is greater than 100 µM; in the experiment on CCRF-CEM leukemia, greater than 100 µM; in the experiment with HCC-2998 colon, greater than 100 µM; in the experiment with SN12C renal, greater than 50.8 µM; in the experiment on A498 renal, 35.4 µM; with SK-OV-3 ovarian it was greater than 100 µM. The TGI in the experiment with U251 CNS, in the experiment with KM12 colon, in the experiment on EKVX NSCLC, with A549 NSCLC, with SR leukemia and in the experiment with SF-539 CNS was greater than 100 µM in each case. Further, the TGI was greater than 100 µM in the experiment on SK-MEL-2 melanoma; greater than 44.5 µM in the experiment on SF-295 CNS; greater than 100 µM in the experiment on NCI-H460 lung; greater than 100 µM with NCI/ADR-RES ovarian; greater than 100 µM with RPMI-8226 leukemia.
As for `COc1ccc2c(c1)CC[C@@H]1[C@@H]2CC[C@]2(C)C(=O)/C(=C/c3ccncc3)C[C@@H]12`, the TGI was greater than 100 µM in the experiment on NCI-H226 lung; greater than 100 µM with CCRF-CEM leukemia; 75.4 µM with HCC-2998 colon; greater than 100 µM with SN12C renal; 87.6 µM in the experiment on A498 renal; greater than 100 µM with SK-OV-3 ovarian. Moreover, the TGI in the experiment on U251 CNS was greater than 100 µM; in the experiment on KM12 colon it was 73.9 µM; in the experiment on EKVX NSCLC, greater than 100 µM; in the experiment with A549 NSCLC it was greater than 100 µM; in the experiment on SR leukemia, greater than 100 µM; with SF-539 CNS, 55.1 µM. Also, the TGI in the experiment with SK-MEL-2 melanoma was 60.1 µM; in the experiment with SF-295 CNS, 66.6 µM; in the experiment with NCI-H460 lung, greater than 100 µM; in the experiment on NCI/ADR-RES ovarian, greater than 100 µM; with RPMI-8226 leukemia, greater than 100 µM.
On to `O=C1c2ccccc2C(=O)c2c1ccc(C(=O)O)c2-c1ccc2ccccc2c1`, for which the TGI in the experiment on NCI-H226 lung was 79.6 µM; in the experiment on CCRF-CEM leukemia it was 52.4 µM; in the experiment on HCC-2998 colon, greater than 100 µM; with SN12C renal, 88.8 µM; in the experiment on A498 renal, 85.5 µM; in the experiment with SK-OV-3 ovarian, greater than 100 µM. The TGI in the experiment with U251 CNS was 55.4 µM; in the experiment on KM12 colon it was greater than 100 µM; with EKVX NSCLC, 81 µM; in the experiment with A549 NSCLC it was greater than 100 µM; with SR leukemia it was 51.6 µM; with SF-539 CNS it was 50.4 µM. Moreover, the TGI was 48.5 µM with SK-MEL-2 melanoma; 81 µM in the experiment with SF-295 CNS; greater than 100 µM with NCI-H460 lung; greater than 100 µM in the experiment with NCI/ADR-RES ovarian; 83.8 µM with RPMI-8226 leukemia.
In the case of `Cc1c2cccc-2ccc2c1[nH]c1ccc(Br)cc12`, the TGI in the experiment on NCI-H226 lung came out at 5.6 µM; with CCRF-CEM leukemia it was 90.9 µM; in the experiment on HCC-2998 colon, 49.3 µM; with SN12C renal, 27.2 µM; with A498 renal it was 37.9 µM; with SK-OV-3 ovarian, 28.7 µM. In addition, the TGI was 12.1 µM with U251 CNS; 7.08 µM with KM12 colon; 6.11 µM in the experiment on EKVX NSCLC; 17.5 µM with A549 NSCLC; greater than 100 µM in the experiment on SR leukemia; 19.1 µM in the experiment on SF-539 CNS. Moreover, the TGI in the experiment on SK-MEL-2 melanoma was 17.9 µM; with SF-295 CNS, 15.7 µM; with NCI-H460 lung it was greater than 100 µM; with NCI/ADR-RES ovarian, 38.4 µM; in the experiment with RPMI-8226 leukemia, 10.2 µM.
Regarding `CCN(CC)CCOC(=O)CCN1CC2CCC(CC2)C1`, the TGI in the experiment on NCI-H226 lung, with CCRF-CEM leukemia, with HCC-2998 colon, in the experiment on A498 renal, in the experiment with SK-OV-3 ovarian and in the experiment on U251 CNS was greater than 100 µM each time. Further, the TGI in the experiment on KM12 colon, in the experiment with EKVX NSCLC, with A549 NSCLC, with SR leukemia, in the experiment on SF-539 CNS and with SK-MEL-2 melanoma was greater than 100 µM throughout. Further, the TGI in the experiment with SF-295 CNS, with NCI-H460 lung, in the experiment with NCI/ADR-RES ovarian and in the experiment with RPMI-8226 leukemia was greater than 100 µM each time.
In the case of `CC(C)[Si](OC1=C(C(=O)N(C)c2ccccc2Cl)CCCC1)(C(C)C)C(C)C`, the TGI in the experiment with NCI-H226 lung came to 31 µM; in the experiment on CCRF-CEM leukemia, 29.7 µM; in the experiment with HCC-2998 colon, 28.1 µM; in the experiment on A498 renal it was 31 µM; in the experiment with SK-OV-3 ovarian it was 28.5 µM; in the experiment with U251 CNS, 25.8 µM. The TGI with KM12 colon is 27.5 µM; in the experiment on EKVX NSCLC it was 28 µM; in the experiment on A549 NSCLC, 14.3 µM; in the experiment on SR leukemia, 24.1 µM; in the experiment on SF-539 CNS it was 32.7 µM; in the experiment on SK-MEL-2 melanoma it was 29.3 µM. Moreover, the TGI was determined as 20.9 µM in the experiment on SF-295 CNS, 28.6 µM in the experiment on NCI-H460 lung, 29.6 µM with NCI/ADR-RES ovarian and 55.4 µM in the experiment on RPMI-8226 leukemia.
On to `CCN1C(=O)c2ccccc2C1(O)c1ccc(Cl)cc1` (configuration not stated), for which the TGI is 74.3 µM with NCI-H226 lung; greater than 100 µM in the experiment with CCRF-CEM leukemia; greater than 100 µM in the experiment on HCC-2998 colon; greater than 100 µM in the experiment with SN12C renal; greater than 100 µM in the experiment with A498 renal; greater than 100 µM in the experiment with SK-OV-3 ovarian. The TGI with U251 CNS, in the experiment with KM12 colon, with EKVX NSCLC, in the experiment with A549 NSCLC, in the experiment on SR leukemia and with SF-539 CNS was greater than 100 µM each time. Also, the TGI in the experiment on SK-MEL-2 melanoma was 83.6 µM; in the experiment on SF-295 CNS, 63.2 µM; in the experiment with NCI-H460 lung, greater than 100 µM; in the experiment with NCI/ADR-RES ovarian it was greater than 100 µM; in the experiment with RPMI-8226 leukemia it was greater than 100 µM.
